Results from US20230159538A1, “PYRROLIDINE-PYRAZOLES AS PYRUVATE KINASE ACTIVATORS” (Global Blood Therapeutics, Inc., priority 2020, published 2023).

Biological target: T1, Human pyruvate kinase R (PKR) (Homo sapiens, UniProt P30613)
T1 construct: Human pyruvate kinase R (PKR), residues 14-574; 6x-His (N, cleaved yes); 8x-Arg (N, cleaved yes); SUMO (N, cleaved yes); host or cells: E. coli
Test: Biochemical assay for activation of pyruvate kinase R (Kinase-Glo luminescence, ATP generation)
Conditions: for AC50: 0.1 nM PKR, 2 mM FBP, 0.3 mM ADP, 0.1 mM PEP; for PKR % activation: maximal activation level relative to the activation level achieved by AG-348 @ 10 μM
Method: Proteins were translated as fusions with 6×-His, 8×-Arg, and SUMO at the N-terminus. […] All proteins were cloned, expressed in E. coli, and purified using similar protocols. Cells were grown at 30° C. in Luria-Bertani broth supplemented with 0.4% glucose to OD600=0.8 and induced with 0.4 mM IPTG at 16° C. for 18 hours. Cells were harvested by centrifugation, resuspended in 50 mM potassium phosphate pH 8.0, 500 mM NaCl, 25 mM imidazole pH 8.0, and 3 mM β-mercaptoethanol. Cells were lysed using a LM20 microfluidizer from Microfluidics (Westwood, Mass.). The crude lysate was immediately supplemented with 0.2 mM phenylmethylsulfonyl fluoride (PMSF) and centrifuged at 20,000 g for 20 minutes. The soluble fraction was subsequently incubated with 2 mL Ni-NTA (GE Healthcare) per 1,000 ODs for 1 hour at 4° C. Following incubation with the Ni-NTA resin, lysate was removed by pelleting resin at 2,500 g for 3 minutes and washed 3 times with 9 bed volumes of 50 mM potassium phosphate pH 8.0, 500 mM NaCl, 25 mM imidazole, and 3 mM β-mercaptoethanol. Following the batch wash Ni-NTA resin was loaded onto a gravity column and His-tagged protein was eluted with 6 bed volumes of 10 mM Tris/HCl pH 8.0, 200 mM NaCl, 500 mM imidazole, and 3 mM β-mercaptoethanol. Eluted protein was dialyzed overnight against 10 mM Tris/HCl pH 8.0, 200 mM NaCl, and 1 mM DTT and the 6×-His-8×-Arg-SUMO-tag was cleaved using a 20:1 molar ratio of protein:3C protease. The protein was purified by anion exchange chromatography on a HiTrapQ or MonoQ 10/100 GL column (GE Healthcare) via a linear NaCl gradient and twice by size exclusion chromatography using a Superdex S200 26/60 column (GE Healthcare) run in 10 mM Tris/HCl pH 8.0, 200 mM NaCl, 10 mM MgCl2, 1 mM DTT. Proteins were concentrated to ˜12 mg/mL for crystallization and flash frozen for storage.
Biochemical Assay for Activation of Pyruvate Kinase R
Activation of pyruvate kinase R (PKR) and pyruvate kinase M2 (PKM2) were measured using a luminescence based measurement of ATP generation and the Kinase-Glo luminescent kinase reagent kit.

T1 sequence (P30613 14-574): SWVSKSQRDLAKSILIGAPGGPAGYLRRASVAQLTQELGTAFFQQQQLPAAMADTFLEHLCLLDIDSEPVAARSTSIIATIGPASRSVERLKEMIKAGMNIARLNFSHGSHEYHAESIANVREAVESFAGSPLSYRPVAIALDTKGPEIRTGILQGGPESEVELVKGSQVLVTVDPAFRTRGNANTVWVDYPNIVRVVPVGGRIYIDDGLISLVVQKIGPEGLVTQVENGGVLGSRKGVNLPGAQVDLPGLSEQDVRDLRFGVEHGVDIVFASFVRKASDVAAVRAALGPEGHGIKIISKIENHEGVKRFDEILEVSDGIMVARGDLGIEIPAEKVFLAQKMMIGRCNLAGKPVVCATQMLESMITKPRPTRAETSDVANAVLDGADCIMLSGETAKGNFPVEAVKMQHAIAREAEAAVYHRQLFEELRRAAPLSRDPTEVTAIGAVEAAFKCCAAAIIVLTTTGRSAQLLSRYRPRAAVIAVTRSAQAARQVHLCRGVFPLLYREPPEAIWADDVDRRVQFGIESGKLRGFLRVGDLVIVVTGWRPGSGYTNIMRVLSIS

Row | AC50 | PKR % activation | SMILES
1 | 25 nM | 156% | COc1ccc(S(=O)(=O)n2cc3c(n2)CN(C(=O)[C@H](O)c2ncccc2F)C3)cc1 (single isomer, unassigned) [Compound 87, (2R)-2-(3-fluoropyridin-2-yl)-2-hydroxy-1-[2-(4-methoxybenzenesulfonyl)-2H,4H,5H,6H-pyrrolo[3,4-c]pyrazol-5-yl]ethan-1-one or (2R)-2-(3-fluoropyridin-2-yl)-2-hydroxy-1-[2-(4-methoxybenzenesulfonyl)-2H,4H,5H,6H-pyrrolo[3,4-c]pyrazol-5-yl]ethan-1-one]
2 | 7.9 nM | 132% | O=C([C@H](CO)c1ncccc1F)N1Cc2cn(S(=O)(=O)c3ccc(OC(F)F)cc3)nc2C1 (single isomer, unassigned) [Compound 89, (2S)-1-{2-[4-(difluoromethoxy)benzenesulfonyl]-2H,4H,5H,6H-pyrrolo [3,4-c]pyrazol-5-yl}-2-(3-fluoropyridin-2-yl)-3-hydroxypropan-1-one or (2R)-1-{2-[4-(difluoromethoxy)benzenesulfonyl]-2H,4H,5H,6H-pyrrolo[3,4-c]pyrazol-5-yl}-2-(3-fluoropyridin-2-yl)-3-hydroxypropan-1-one]
3 | 800 nM | 120% | O=C1CN([C@@H](C(=O)N2Cc3cn(S(=O)(=O)c4ccc(OC(F)F)cc4)nc3C2)c2ccccc2)C1 (single isomer, unassigned) [Compound 92, 1-[(1R)-2-{2-[4-(difluoromethoxy)benzenesulfonyl]-2H,4H,5H,6H-pyrrolo[3,4-c]pyrazol-5-yl}-2-oxo-1-phenylethyl]azetidin-3-one or 1-[(1S)-2-{2-[4-(difluoromethoxy)benzenesulfonyl]-2H,4H,5H,6H-pyrrolo[3,4-c]pyrazol-5-yl}-2-oxo-1-phenylethyl]azetidin-3-one]
4 | 5550 nM | 84% | O=C1CN([C@@H](C(=O)N2Cc3cn(S(=O)(=O)c4ccc(OC(F)F)cc4)nc3C2)c2ccccc2)C1 (single isomer, unassigned) [Compound 93, 1-[(1R)-2-{2-[4-(difluoromethoxy)benzenesulfonyl]-2H,4H,5H,6H-pyrrolo[3,4-c]pyrazol-5-yl}-2-oxo-1-phenylethyl]azetidin-3-one or 1-[(1S)-2-{2-[4-(difluoromethoxy)benzenesulfonyl]-2H,4H,5H,6H-pyrrolo[3,4-c]pyrazol-5-yl}-2-oxo-1-phenylethyl]azetidin-3-one]
5 | 190 nM | 92% | O=C([C@@H](c1ccccc1)N1CCC1=O)N1Cc2cn(S(=O)(=O)c3ccc(OC(F)F)cc3)nc2C1 (single isomer, unassigned) [Compound 99, 1-[(1R)-2-{2[4-(difluoromethoxy)benzenesulfonyl]-2H,4H,5H,6H-pyrrolo[3,4-c]pyrazol-5-yl}-2-oxo-1-phenylethyl]azetidin-2-one or 1-[(1S)-2-{2-[4-(difluoromethoxy)benzenesulfonyl]-2H,4H,5H,6H-pyrrolo[3,4-c]pyrazol-5-yl}-2-oxo-1-phenylethyl]azetidin-2-one]
6 | > 10000 nM | 0% | O=C([C@@H](c1ccccc1)N1CCC1=O)N1Cc2cn(S(=O)(=O)c3ccc(OC(F)F)cc3)nc2C1 (single isomer, unassigned) [Compound 100, 1-[(1R)-2-{2-[4-(difluoromethoxy)benzenesulfonyl]-2H,4H,5H,6H-pyrrolo[3,4-c]pyrazol-5-yl}-2-oxo-1-phenylethyl]azetidin-2-one or 1-[(1S)-2-{2-[4-(difluoromethoxy)benzenesulfonyl]-2H,4H,5H,6H-pyrrolo[3,4-c]pyrazol-5-yl}-2-oxo-1-phenylethyl]azetidin-2-one]
7 | > 10000 nM | 0% | O=C([C@@H](c1ccccc1)N1CCOCC1)N1Cc2cn(S(=O)(=O)c3ccc(OC(F)F)cc3)nc2C1 (single isomer, unassigned) [Compound 107, (2R)-1-{2-[4-(difluoromethoxy)benzenesulfonyl]-2H,4H,5H,6H-pyrrolo[3,4-c]pyrazol-5-yl}-2-(morpholin-4-yl)-2-phenylethan-1-one or (2S)-1-{2-[4-(difluoromethoxy)benzenesulfonyl]-2H,4H,5H,6H-pyrrolo[3,4-c]pyrazol-5-yl}-2-(morpholin-4-yl)-2-phenylethan-1-one]

Further lines, the compound ahead of its results:

Row | SMILES | AC50 | PKR % activation
8 | O=C(N1Cc2cn(S(=O)(=O)c3ccc4ncsc4c3)nc2C1)[C@@]1(c2ccccc2)CCCN1 (single isomer, unassigned) [Compound 61, 6-({5-[(2S)-2-phenylpyrrolidine-2-carbonyl]-2H,4H,5H,6H-pyrrolo[3,4-c]pyrazol-2-yl}sulfonyl)-1,3-benzothiazole or 6-({5-[(2R)-2-phenylpyrrolidine-2-carbonyl]-2H,4H,5H,6H-pyrrolo[3,4-c]pyrazol-2-yl}sulfonyl)-1,3-benzothiazole] | 452 nM | 48%
9 | C[C@@H](O)[C@H](C(=O)N1Cc2cn(S(=O)(=O)c3ccc4cn[nH]c4c3)nc2C1)c1ccccc1 (single isomer, unassigned) [Compound 62] | 47 nM | 115%
10 | C[C@@H](O)[C@@H](C(=O)N1Cc2cn(S(=O)(=O)c3ccc(OC(F)F)cc3)nc2C1)c1ccccc1Cl (single isomer, unassigned) [Compound 66] | 13 nM | 142%
11 | C[C@@H](O)[C@@H](C(=O)N1Cc2cn(S(=O)(=O)c3ccc(OC(F)F)cc3)nc2C1)c1ccccc1Cl (single isomer, unassigned) [Compound 68] | 10 nM | 179%
12 | CC(O)C(C(=O)N1Cc2cn(S(=O)(=O)c3ccc4ncsc4c3)nc2C1)c1ccccc1Cl (single isomer, unassigned) [Compound 69] | 4.7 nM | –
13 | C[C@@H](O)[C@@H](C(=O)N1Cc2cn(S(=O)(=O)c3cnc4c(c3)OCCO4)nc2C1)c1ccccc1Cl (single isomer, unassigned) [Compound 70] | 15 nM | 80%
14 | O=C(C(CO)c1ccccc1Cl)N1Cc2cn(S(=O)(=O)c3cnc4c(c3)OCCO4)nc2C1 (single isomer, unassigned) [Compound 71, (2S,3R)-2-(2-chlorophenyl)-1-(2-[2H,3H[1,4]dioxino[2,3-b]pyridine-7-sulfonyl]-4H,6H-pyrrolo[3,4-c]pyrazol-5-yl)-3-hydroxybutan-1-one or (2R,3R)-2-(2-chlorophenyl)-1-(2-[2H,3H-[1,4]dioxino[2,3-b]pyridine-7-sulfonyl]-4H,6H-pyrrolo[3,4-c]pyrazol-5-yl)-3-hydroxybutan-1-one] | 8.9 nM | –
15 | O=C([C@H](O)c1ncccc1F)N1Cc2cn(S(=O)(=O)c3ccc4ncsc4c3)nc2C1 (single isomer, unassigned) [Compound 74, (2R)-1-[2-(1,3-benzothiazole-6-sulfonyl)-2H,4H,5H,6H-pyrrolo[3,4-c]pyrazol-5-yl]-2-(3-fluoropyridin-2-yl)-2-hydroxyethan-1-one or (2S)-1-[2-(1,3-benzothiazole-6-sulfonyl)-2H,4H,5H,6H-pyrrolo[3,4-c]pyrazol-5-yl]-2-(3-fluoropyridin-2-yl)-2-hydroxyethan-1-one] | 8.5 nM | 100%
16 | O=C([C@H](CO)c1ncccc1F)N1Cc2cn(S(=O)(=O)c3ccc4ncccc4c3)nc2C1 (single isomer, unassigned) [Compound 102, (2S)-2-(3-fluoropyridin-2-yl)-3-hydroxy-1-[2-(quinoline-6-sulfonyl)-2H,4H,5H,6H-pyrrolo[3,4-c]pyrazol-5-yl]propan-1-one or (2R)-2-(3-fluoropyridin-2-yl)-3-hydroxy-1-[2-(quinoline-6-sulfonyl)-2H,4H,5H,6H-pyrrolo[3,4-c]pyrazol-5-yl]propan-1-one] | 12 nM | 81%
17 | O=C([C@H](CO)c1ncccc1F)N1Cc2cn(S(=O)(=O)c3ccc4ncccc4c3)nc2C1 (single isomer, unassigned) [Compound 103, (2S)-2-(3-fluoropyridin-2-yl)-3-hydroxy-1-[2-(quinoline-6-sulfonyl)-2H,4H,5H,6H-pyrrolo[3,4-c]pyrazol-5-yl]propan-1-one or (2R)-2-(3-fluoropyridin-2-yl)-3-hydroxy-1-[2-(quinoline-6-sulfonyl)-2H,4H,5H,6H-pyrrolo[3,4-c]pyrazol-5-yl]propan-1-one] | 220 nM | 41%
